Measurements from patent US8569314B2, “Triazolo and tetrazolo pyrimidine derivatives as HNE inhibitors for treating COPD” (Bayer Intellectual Property GmbH, priority 2009, dated 2013).
Where a name gives a salt, the structure may show the parent alone.

Target: human neutrophil elastase (HNE) (Homo sapiens (Human), UniProt P08246)
Test: In vitro HNE inhibition assay (fluorogenic peptide substrate MeOSuc-Ala-Ala-Pro-Val-AMC)
Assay type: biochemical
Details: HNE concentration of 80 pM; 37° C., 2 hours
Description: B-1. In Vitro HNE Inhibition Assay
The potency of the compounds of the invention is ascertained in an in vitro inhibition assay. The HNE-mediated amidolytic cleavage of a suitable peptide substrate leads in this connection to an increase in the fluorescent light. The signal intensity of the fluorescent light is directly proportional to the enzyme activity. The effective concentration of a test compound at which half the enzyme is inhibited (50% signal intensity of the fluorescent light) is indicated as IC50.
Enzyme (80 pM HNE; from Serva, Heidelberg) and substrate (20 μM MeOSuc-Ala-Ala-Pro-Val-AMC; from Bachem, Weil am Rhein) are incubated in an assay volume of in total 50 μl of assay buffer (0.1 M HEPES pH 7.4, 0.5 M NaCl, 0.1% w/v BSA, 1% v/v DMSO) in a 384-well microtiter plate in the presence and absence of the test substance at 37° C. for 2 hours. The intensity of the fluorescent light from the assay mixtures is measured (Ex. 380 nm, Em. 460 nm). The IC50 values are determined by plotting the intensity of the fluorescent light against the active substance concentration.

Chain of human neutrophil elastase (HNE) (P08246 30-267): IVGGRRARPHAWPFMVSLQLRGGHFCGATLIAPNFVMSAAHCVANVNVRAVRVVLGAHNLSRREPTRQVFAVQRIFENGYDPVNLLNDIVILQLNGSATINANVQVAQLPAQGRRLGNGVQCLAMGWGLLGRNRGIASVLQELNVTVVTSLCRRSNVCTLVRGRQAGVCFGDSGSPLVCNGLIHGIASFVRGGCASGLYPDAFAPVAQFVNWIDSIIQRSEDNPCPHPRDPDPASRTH

SMILES | IC50
CCOC(=O)Nc1nc2n(n1)C(c1ccc(C#N)cc1)C(C(=O)OCC)=C(C)N2c1cccc(C(F)(F)F)c1 (centres unmarked) [Example 50, Ethyl 7-(4-cyanophenyl)-2-[(ethoxycarbonyl)amino]-5-methyl-4-[3-(trifluoromethyl)phenyl]-4,7-dihydro[1,2,4]triazolo[1,5-a]pyrimidine-6-carboxylate] | < 0.3 nM
CC1=C(C#N)[C@@H](c2ccc(C#N)cc2)n2nc(NC(=O)C3CCCCC3)nc2N1c1cccc(C(F)(F)F)c1 [Example 23, N-{(7R)-6-Cyano-7-(4-cyanophenyl)-5-methyl-4-[3-(trifluoromethyl)phenyl]-4,7-dihydro[1,2,4]triazolo[1,5-a]pyrimidin-2-yl}cyclohexanecarboxamide] | < 0.3 nM
CCOC(=O)C1=C(C)N(c2cccc(C(F)(F)F)c2)c2nc3cncnc3n2C1c1ccc(C#N)cc1 (racemic) [Example 78, Ethyl(rac)-9-(4-cyanophenyl)-7-methyl-6-[3-(trifluoromethyl)phenyl]-6,9-dihydropyrimido[1,2-e]-purin-8-carboxylate] | 3 nM
CC1=C(C#N)C(c2ccc(C#N)cc2)n2nc(C(C)C)nc2N1c1cccc(C(F)(F)F)c1 (racemic) [Example 67, (rac)-7-(4-Cyanophenyl)-5-methyl-2-(1-methylethyl)-4-[3-(trifluoromethyl)phenyl]-4,7-dihydro-[1,2,4]triazolo[1,5-a]pyrimidine-6-carbonitrile] | 85 nM
CCNc1nc2n(n1)[C@H](c1ccc(C#N)cc1)C(C#N)=C(C)N2c1cccc(C(F)(F)F)c1 [Example 56, (7R)-7-(4-Cyanophenyl)-2-(ethylamino)-5-methyl-4-[3-(trifluoromethyl)phenyl]-4,7-dihydro-[1,2,4]triazolo[1,5-a]pyrimidine-6-carbonitrile] | < 0.3 nM
CC1=C(C#N)[C@@H](c2ccc(C#N)cc2S(C)(=O)=O)n2nc(N)nc2N1c1cccc(C(F)(F)F)c1 [Example 9, (7S)-2-Amino-7-[4-cyano-2-(methylsulfonyl)phenyl]-5-methyl-4-[3-(trifluoromethyl)phenyl]-4,7-dihydro[1,2,4]triazolo[1,5-a]pyrimidine-6-carbonitrile hydrochloride] | < 0.3 nM
CCOC(=O)C1=C(C)N(c2cccc(C(F)(F)F)c2)c2nccn2[C@@H]1c1ccc(C#N)cc1 [Example 90, Ethyl (5R)-5-(4-cyanophenyl)-7-methyl-8-[3-(trifluoromethyl)phenyl]-5,8-dihydroimidazo[1,2-a]-pyrimidine-6-carboxylate] | 6.5 nM
CC1=C(C#N)C(c2ccc(C#N)cc2S(C)(=O)=O)n2nc(N3C(=O)c4ccccc4C3=O)nc2N1c1cccc(C(F)(F)F)c1 (racemic) [Example 5, (rac)-7-[4-Cyano-2-(methylsulfonyl)phenyl]-2-(1,3-dioxo-1,3-dihydro-2H-isoindol-2-yl)-5-methyl-4-[3-(trifluoromethyl)phenyl]-4,7-dihydro[1,2,4]triazolo[1,5-a]pyrimidine-6-carbonitrile] | < 0.3 nM
CC1=C(C#N)[C@@H](c2ccc(C#N)cc2S(C)(=O)=O)n2nc(NC(=O)C3CC3)nc2N1c1cccc(C(F)(F)F)c1 [Example 35, N-{(7S)-6-Cyano-7-[4-cyano-2-(methylsulfonyl)phenyl]-5-methyl-4-[3-(trifluoromethyl)phenyl]-4,7-dihydro[1,2,4]triazolo[1,5-a]pyrimidin-2-yl}cyclopropanecarboxamide] | < 0.3 nM
CC1=C(C#N)[C@@H](c2ccc(C#N)cc2)n2nc(NC(=O)NCCO)nc2N1c1cccc(C(F)(F)F)c1 [Example 53, 1-{(7R)-6-Cyano-7-(4-cyanophenyl)-5-methyl-4-[3-(trifluoromethyl)phenyl]-4,7-dihydro[1,2,4]triazolo[1,5-a]pyrimidin-2-yl}-3-(2-hydroxyethyl)urea] | < 0.3 nM

Target: pancreas elastase (Sus scrofa (Pig), UniProt P00772)
Test: not given
Details: cited from earlier work

Chain of pancreas elastase (P00772 27-266): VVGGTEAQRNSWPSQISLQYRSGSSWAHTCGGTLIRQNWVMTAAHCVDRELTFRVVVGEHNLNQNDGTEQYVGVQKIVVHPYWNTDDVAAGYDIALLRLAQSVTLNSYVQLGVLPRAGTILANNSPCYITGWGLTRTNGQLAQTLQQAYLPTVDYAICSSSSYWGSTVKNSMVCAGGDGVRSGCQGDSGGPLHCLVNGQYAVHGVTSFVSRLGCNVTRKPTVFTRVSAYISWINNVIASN

SMILES | IC50
CC(C)(C)C(=O)Oc1ccc(S(=O)(=O)Nc2ccccc2C(=O)NCC(=O)O)cc1 [sivelestat] | 5.6 µM
